In ChEMBL document CHEMBL4715869, “N-(Pyrimidin-2-yl)-1,2,3,4-tetrahydroisoquinolin-6-amine Derivatives as Selective Janus Kinase 2 Inhibitors for the Treatment of Myeloproliferative Neoplasms” (J Med Chem, 2020):
Active and inactive are the calls of the source. No cut-off for these calls is given here.

How the values were obtained:
SET-2 [1] = experiment: Induction of cell cycle arrest in human SET2 cells assessed as accumulation at G0/G1 phase incubated for 24 hrs by propidium iodide staining based flow cytometry; format: functional; details: dose 10-160 nM
[2] = system: Receptor-type tyrosine-protein kinase FLT3 (Homo sapiens), P36888 [UNDEFINED MUTATION]; experiment: Inhibition of FLT3 ITD mutant in human MOLM13 cells assessed as residual activity at 100 nM relative to control; format: cell-based; details: MOLM-13
Receptor-type tyrosine-protein kinase FLT3 (Homo sapiens), P36888 [UNDEFINED MUTATION], sequence (P36888 whole entry, looked up, stated change not applied): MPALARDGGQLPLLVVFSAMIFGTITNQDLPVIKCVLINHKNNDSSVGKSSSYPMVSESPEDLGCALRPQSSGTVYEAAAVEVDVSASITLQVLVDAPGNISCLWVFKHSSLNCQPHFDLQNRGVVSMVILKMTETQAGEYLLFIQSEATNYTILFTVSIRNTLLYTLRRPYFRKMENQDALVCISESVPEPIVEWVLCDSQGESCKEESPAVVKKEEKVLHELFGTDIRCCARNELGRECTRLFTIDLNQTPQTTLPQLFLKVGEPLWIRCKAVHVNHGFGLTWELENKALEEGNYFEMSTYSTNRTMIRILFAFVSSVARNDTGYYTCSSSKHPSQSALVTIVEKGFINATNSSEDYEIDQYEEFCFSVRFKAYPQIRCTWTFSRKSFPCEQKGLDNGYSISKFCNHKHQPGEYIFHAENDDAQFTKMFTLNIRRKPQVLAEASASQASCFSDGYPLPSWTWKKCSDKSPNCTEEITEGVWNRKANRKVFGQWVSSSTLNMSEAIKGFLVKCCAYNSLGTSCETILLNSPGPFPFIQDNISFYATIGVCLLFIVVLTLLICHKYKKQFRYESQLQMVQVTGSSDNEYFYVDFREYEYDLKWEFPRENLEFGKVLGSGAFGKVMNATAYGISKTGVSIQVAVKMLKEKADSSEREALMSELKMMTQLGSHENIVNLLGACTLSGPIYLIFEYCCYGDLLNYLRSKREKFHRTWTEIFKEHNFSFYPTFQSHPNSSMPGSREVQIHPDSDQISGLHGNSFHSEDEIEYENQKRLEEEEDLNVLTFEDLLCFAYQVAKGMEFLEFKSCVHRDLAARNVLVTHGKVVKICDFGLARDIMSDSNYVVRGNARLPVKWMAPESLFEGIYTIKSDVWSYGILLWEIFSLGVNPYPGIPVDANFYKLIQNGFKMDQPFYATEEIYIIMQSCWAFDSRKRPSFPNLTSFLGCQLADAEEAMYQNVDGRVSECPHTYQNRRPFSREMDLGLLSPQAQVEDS

[3] = molecular target: T1, Tyrosine-protein kinase JAK3 (Homo sapiens, UniProt P52333); experiment: Inhibition of recombinant human JAK3 (781 to end residues) using GGEEEEYFELVKKKK as substrate measured after 40 mins in presence of [gamm33P]ATP by scintillation counting method
T1 sequence (P52333 whole entry): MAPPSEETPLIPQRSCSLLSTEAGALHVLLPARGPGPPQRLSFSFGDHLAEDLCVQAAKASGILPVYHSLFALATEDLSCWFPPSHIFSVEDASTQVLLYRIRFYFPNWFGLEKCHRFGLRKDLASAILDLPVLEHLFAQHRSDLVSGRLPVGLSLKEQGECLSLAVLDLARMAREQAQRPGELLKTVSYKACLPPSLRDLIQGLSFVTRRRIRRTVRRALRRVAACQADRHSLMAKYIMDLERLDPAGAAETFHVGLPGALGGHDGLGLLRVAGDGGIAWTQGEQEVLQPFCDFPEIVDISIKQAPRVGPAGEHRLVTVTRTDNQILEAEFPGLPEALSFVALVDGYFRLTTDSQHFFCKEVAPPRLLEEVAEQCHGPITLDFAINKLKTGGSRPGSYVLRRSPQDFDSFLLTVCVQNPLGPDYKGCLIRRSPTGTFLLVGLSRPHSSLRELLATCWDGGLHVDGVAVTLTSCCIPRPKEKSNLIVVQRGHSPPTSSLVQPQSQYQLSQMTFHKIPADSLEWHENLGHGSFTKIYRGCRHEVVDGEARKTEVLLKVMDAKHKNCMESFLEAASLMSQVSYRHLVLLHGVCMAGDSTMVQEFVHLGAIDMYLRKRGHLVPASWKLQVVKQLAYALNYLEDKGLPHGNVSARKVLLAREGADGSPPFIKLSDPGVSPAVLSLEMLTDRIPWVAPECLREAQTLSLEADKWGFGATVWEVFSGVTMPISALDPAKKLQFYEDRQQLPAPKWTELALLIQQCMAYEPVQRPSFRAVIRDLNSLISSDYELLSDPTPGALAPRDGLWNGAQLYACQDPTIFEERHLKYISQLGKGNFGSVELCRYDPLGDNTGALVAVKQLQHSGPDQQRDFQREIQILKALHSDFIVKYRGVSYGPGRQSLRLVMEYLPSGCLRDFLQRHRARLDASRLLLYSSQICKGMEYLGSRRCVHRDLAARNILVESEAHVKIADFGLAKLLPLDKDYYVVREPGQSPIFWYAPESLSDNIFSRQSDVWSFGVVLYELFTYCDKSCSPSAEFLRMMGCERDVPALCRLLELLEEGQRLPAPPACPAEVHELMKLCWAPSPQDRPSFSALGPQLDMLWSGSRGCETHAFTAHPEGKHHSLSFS

[4] = molecular target: Non-receptor tyrosine-protein kinase TYK2 (Homo sapiens, UniProt P29597); experiment: Inhibition of recombinant human TYK2 (875 to end residues) using GGMEDIYFEFMGGKKK as substrate incubated for 40 mins in presence of [gamma33P]ATP by scintillation counting based radiometry assay
Non-receptor tyrosine-protein kinase TYK2, sequence (P29597 whole entry): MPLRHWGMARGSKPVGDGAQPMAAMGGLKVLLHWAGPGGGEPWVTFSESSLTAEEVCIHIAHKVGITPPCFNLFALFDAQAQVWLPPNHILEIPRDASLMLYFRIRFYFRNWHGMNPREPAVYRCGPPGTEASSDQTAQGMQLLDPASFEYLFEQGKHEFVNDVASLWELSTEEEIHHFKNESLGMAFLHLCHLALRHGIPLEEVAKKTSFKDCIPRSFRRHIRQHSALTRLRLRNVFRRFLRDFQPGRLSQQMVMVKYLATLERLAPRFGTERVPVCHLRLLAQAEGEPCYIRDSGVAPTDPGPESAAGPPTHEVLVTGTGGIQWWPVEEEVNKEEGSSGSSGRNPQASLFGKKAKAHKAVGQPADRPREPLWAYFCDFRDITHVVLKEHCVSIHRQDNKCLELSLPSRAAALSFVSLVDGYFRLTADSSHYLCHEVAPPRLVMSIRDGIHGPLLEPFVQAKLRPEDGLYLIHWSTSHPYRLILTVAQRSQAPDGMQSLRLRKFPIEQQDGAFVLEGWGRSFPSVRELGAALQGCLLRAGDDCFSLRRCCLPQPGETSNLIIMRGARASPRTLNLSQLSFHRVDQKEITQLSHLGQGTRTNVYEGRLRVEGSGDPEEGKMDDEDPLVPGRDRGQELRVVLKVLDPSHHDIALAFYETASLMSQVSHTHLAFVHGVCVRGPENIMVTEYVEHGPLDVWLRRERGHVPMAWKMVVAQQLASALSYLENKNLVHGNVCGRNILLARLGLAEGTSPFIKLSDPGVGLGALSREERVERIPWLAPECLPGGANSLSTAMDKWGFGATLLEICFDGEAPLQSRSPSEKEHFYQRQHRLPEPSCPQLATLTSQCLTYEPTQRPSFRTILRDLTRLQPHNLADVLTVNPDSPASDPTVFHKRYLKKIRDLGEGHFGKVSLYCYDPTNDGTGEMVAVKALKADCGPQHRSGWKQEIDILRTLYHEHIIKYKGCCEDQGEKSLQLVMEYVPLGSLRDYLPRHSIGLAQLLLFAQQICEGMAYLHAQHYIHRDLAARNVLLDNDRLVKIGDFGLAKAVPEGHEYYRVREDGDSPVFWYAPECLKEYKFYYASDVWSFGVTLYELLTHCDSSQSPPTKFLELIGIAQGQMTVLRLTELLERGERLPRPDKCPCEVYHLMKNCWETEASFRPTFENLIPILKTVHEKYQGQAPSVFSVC

[5] = Selectivity index, ratio of IC50 for inhibition of human JAK1 (866 to end residues) to IC50 for inhibition of recombinant human JAK2 (808 to end residues)
[6] = Selectivity index, ratio of IC50 for inhibition of recombinant human TYK2 (875 to end residues) to IC50 for inhibition of recombinant human JAK2 (808 to end residues)
L02 = experiment: Cytotoxicity against human L02 cells assessed as reduction in cell viability incubated for 72 hrs by MTT assay; format: cell-based; details: L02, 72 h
[7] = Metabolic stability in rat liver microsomes assessed as half-life; format: ADME, Microsome
[8] = Elimination half life in male Sprague-Dawley rat at 5 mg/kg, po administered via gavage measured upto 24 hrs by LC/MS/MS analysis; format: ADME, organism-based; details: in vivo, read-out: beta t1/2 (converted)
[9] = AUC (0 to t) in Sprague-Dawley rat at 5 mg/kg, po administered via gavage measured upto 24 hrs by LC/MS/MS analysis; format: ADME, organism-based; parameters: route oral, dose 5 mg/kg, time <=24; details: in vivo
[10] = Oral bioavailability in Sprague-Dawley rat at 5 mg/kg administered via gavage measured upto 24 hrs by LC/MS/MS analysis; format: ADME, organism-based; details: in vivo
[11] = Apparent clearance in Sprague-Dawley rat at 5 mg/kg, iv administered […] measured upto 24 hrs by LC/MS/MS analysis; format: ADME, organism-based; details: in vivo, read-out: CL(app) (converted)
SET-2 [12] = experiment: Antitumor activity against human SET2 cells xenografted in NOD/SCID mouse assessed as tumor growth inhibition at 30 mg/kg, po qd administered for 16 days and measured every 2 days relative to control; format: functional; details: SET-2, po, 384 h, time 16 day, read-out: TGI
SET-2 [13] = experiment: Antitumor activity against human SET2 cells xenografted in NOD/SCID mouse assessed as tumor growth inhibition at 60 mg/kg, po qd administered for 16 days and measured every 2 days relative to control; format: functional; details: SET-2, po, 384 h, time 16 day, read-out: TGI
SET-2 [14] = experiment: Induction of apoptosis in human SET-2 cells assessed as live cells at 0.05 uM incubated for 24 hrs by Annexin V/PI staining based flow cytometric analysis (reference value: 96.23 %); format: functional
SET-2 [15] = experiment: Induction of apoptosis in human SET-2 cells assessed as live cells at 0.2 uM incubated for 24 hrs by Annexin V/PI staining based flow cytometric analysis (reference value: 96.23 %); format: functional
SET-2 [16] = experiment: Induction of apoptosis in human SET-2 cells assessed as early apoptotic cells at 0.4 uM incubated for 24 hrs by Annexin V/PI staining based flow cytometric analysis (reference value: 1.47 %); format: functional
SET-2 [17] = experiment: Induction of apoptosis in human SET-2 cells assessed as necrotic cells at 0.8 uM incubated for 24 hrs by Annexin V/PI staining based flow cytometric analysis (reference value: 0.78%); format: functional
SET-2 [18] = experiment: Induction of apoptosis in human SET-2 cells assessed as late apoptotic cells at 0.8 uM incubated for 24 hrs by Annexin V/PI staining based flow cytometric analysis (reference value: 1.52%); format: functional
[19] = system: Tyrosine-protein kinase JAK2 (Mus musculus), Q62120 [V617F]; experiment: Inhibition of JAK2 V617F mutant in mouse BAF3 cells assessed as decrease in STAT5 phosphorylation at 50 nM after 2 hrs by Western blot analysis; format: cell-based
Tyrosine-protein kinase JAK2 (Mus musculus), Q62120 [V617F], sequence (Q62120 as listed by the source): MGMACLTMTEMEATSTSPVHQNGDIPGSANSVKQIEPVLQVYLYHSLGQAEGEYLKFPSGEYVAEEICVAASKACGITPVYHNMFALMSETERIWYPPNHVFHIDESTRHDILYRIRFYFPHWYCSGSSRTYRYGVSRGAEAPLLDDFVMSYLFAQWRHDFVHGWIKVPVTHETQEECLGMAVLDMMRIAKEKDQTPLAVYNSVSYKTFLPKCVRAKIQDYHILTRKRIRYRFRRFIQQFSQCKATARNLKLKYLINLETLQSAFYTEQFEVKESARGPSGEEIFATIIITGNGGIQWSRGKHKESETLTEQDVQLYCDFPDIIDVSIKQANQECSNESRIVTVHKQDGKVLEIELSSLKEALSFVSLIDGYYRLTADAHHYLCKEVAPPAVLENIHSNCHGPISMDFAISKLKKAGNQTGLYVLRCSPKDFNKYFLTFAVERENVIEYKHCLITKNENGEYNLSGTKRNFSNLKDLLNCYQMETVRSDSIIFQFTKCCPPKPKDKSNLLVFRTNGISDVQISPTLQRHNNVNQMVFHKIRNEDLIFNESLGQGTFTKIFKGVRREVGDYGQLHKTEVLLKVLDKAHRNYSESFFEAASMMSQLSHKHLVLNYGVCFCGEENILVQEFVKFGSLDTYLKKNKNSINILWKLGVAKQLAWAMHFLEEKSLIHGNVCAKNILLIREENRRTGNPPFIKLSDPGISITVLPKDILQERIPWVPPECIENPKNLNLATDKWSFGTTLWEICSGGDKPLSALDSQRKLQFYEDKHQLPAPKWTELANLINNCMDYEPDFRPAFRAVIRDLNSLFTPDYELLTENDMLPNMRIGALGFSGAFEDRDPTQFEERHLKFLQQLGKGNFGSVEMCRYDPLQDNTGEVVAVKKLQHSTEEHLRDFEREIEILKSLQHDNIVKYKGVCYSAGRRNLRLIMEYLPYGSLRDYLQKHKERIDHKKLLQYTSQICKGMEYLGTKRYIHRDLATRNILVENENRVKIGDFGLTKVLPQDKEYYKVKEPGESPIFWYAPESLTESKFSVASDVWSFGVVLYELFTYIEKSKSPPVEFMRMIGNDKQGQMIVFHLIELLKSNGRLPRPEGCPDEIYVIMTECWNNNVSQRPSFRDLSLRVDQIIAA

Mus musculus = experiment: In vivo inhibition of JAK2 V617F mutant in mouse BAF3 cells xenografted Balb/c nude mouse assessed as decrease in STAT5 phosphorylation in spleen at 30 to 60 mg/kg, po qd administered starting from day 4 to 20 and measured on day 25 by Western blot analysis; format: functional, organism-based; details: dose 30-60 mg/kg, time 21.0 day

Cc1cnc(Nc2ccc3c(c2)CCN(C(=O)/C=C/CN(C)C)C3)nc1-c1cnn(C(C)C)c1
Activity (SET-2 [1]): Dose-dependent effect
Activity [2]: 54%
IC50 [3]: 0.094 µM
IC50 [4]: 0.075 µM
Ratio IC50 [5]: 14
Ratio IC50 [6]: 25
IC50 (L02): 7.22 µM
half-life [7]: 0.91 h
half-life [8]: 1.8 h
AUC(0-t) at 24 h [9]: 0.254 µg·h/mL
bioavailability [10]: 25.7%
clearance [11]: 5.01 L/h/kg
inhibition in vivo at 30 mg/kg (SET-2 [12]): 67.8%
inhibition in vivo at 60 mg/kg (SET-2 [13]): 82.3%
Activity (SET-2 [14]): 94.6%
Activity (SET-2 [15]): 90.35%
Activity (SET-2 [16]): 5.92%
Activity (SET-2 [17]): 1.37%
Activity (SET-2 [18]): 40.19%
inhibition [19]: Active
inhibition (Mus musculus): Active
